In patent US20260240879A1, “TOPICAL PALA THERAPY FOR CANCER” (priority 2023, published 2026):
Read-outs that look alike come from different tables or passages of the source.

Key:
[1] = test system: normal human dermal fibroblasts; experiment: PALA stimulation of normal human dermal fibroblasts (bactericidal activity against MRSA, antimicrobial peptides); type: cell-based; conditions: cells stimulated for 16 h with PALA
Experimental: (§1) A. Bactericidal activity of normal human dermal fibroblasts stimulated by PALA treatment. Cells stimulated for 16 h with the indicated concentration of PALA. Conditioned supernatants added to log phase cultures of methicillin-resistant Staphylococcus aureus (MRSA) for 2 h and viable bacterial determined by selective plating. Mean±SD graphed. B. PALA-stimulated production of antimicrobial peptides in normal human dermal fibroblasts. Cells were stimulated as in A. and supernatants assayed by ELISA for human β-defensin 2 (HBD2) and human β-defensin 3 (HBD3). Mean±SD graphed. C. […] Cell lysates from the cells shown in A. were assayed for their ability to catalyze the formation of carbamyl aspartate (CA) in vitro. Percent change in CA levels graphed; mean±SD. […] D. Average number of tumors per mouse at the end of the treatment period (mean±SEM graphed). D. Mice treated for 10 weeks with vehicle (Aquaphor), 1%, 2%, or 5% PALA in Aquaphor. E. Mice treated for 4 weeks with vehicle (AP0536/29/02), 2% (w/w) PALA (AP0536/29/02), or 4% (w/w) PALA (AP0536/29/02).

[2] = mouse, in vivo
Experimental: The topical formulations of 2% PALA/50% acetone/10% glycerol, 5% imiquimod (IMQ), 5% 5-FU (5-FU), vehicle (50% acetone/10% glycerol) control, and Aquaphor were applied (~0.05 g/mouse) daily to the dorsal skin of SKH1-Elite female mice (8 weeks of age; n=5/group) for 7 days. […] Mice were monitored daily for weight change, skin appearance, and signs of distress. […] At harvest, spleen weights and colon lengths were measured.

[3] = test system: UVB-induced skin tumors; experiment: Immunostaining of excised skin tumors (cell cycle markers, antimicrobial peptides, immune cells); type: in vivo, SKH1-Elite mice
[4] = molecular target: T1, aspartate transcarbamylase (Homo sapiens, UniProt P27708); experiment: Aspartate transcarbamylase activity in lysates of PALA-treated fibroblasts; type: cell-based; conditions: at doses that induce maximal immune stimulation, 16 h
T1 construct: endogenous in cells; host or cells: normal human dermal fibroblasts
T1 sequence (P27708 2-2225 limits assumed): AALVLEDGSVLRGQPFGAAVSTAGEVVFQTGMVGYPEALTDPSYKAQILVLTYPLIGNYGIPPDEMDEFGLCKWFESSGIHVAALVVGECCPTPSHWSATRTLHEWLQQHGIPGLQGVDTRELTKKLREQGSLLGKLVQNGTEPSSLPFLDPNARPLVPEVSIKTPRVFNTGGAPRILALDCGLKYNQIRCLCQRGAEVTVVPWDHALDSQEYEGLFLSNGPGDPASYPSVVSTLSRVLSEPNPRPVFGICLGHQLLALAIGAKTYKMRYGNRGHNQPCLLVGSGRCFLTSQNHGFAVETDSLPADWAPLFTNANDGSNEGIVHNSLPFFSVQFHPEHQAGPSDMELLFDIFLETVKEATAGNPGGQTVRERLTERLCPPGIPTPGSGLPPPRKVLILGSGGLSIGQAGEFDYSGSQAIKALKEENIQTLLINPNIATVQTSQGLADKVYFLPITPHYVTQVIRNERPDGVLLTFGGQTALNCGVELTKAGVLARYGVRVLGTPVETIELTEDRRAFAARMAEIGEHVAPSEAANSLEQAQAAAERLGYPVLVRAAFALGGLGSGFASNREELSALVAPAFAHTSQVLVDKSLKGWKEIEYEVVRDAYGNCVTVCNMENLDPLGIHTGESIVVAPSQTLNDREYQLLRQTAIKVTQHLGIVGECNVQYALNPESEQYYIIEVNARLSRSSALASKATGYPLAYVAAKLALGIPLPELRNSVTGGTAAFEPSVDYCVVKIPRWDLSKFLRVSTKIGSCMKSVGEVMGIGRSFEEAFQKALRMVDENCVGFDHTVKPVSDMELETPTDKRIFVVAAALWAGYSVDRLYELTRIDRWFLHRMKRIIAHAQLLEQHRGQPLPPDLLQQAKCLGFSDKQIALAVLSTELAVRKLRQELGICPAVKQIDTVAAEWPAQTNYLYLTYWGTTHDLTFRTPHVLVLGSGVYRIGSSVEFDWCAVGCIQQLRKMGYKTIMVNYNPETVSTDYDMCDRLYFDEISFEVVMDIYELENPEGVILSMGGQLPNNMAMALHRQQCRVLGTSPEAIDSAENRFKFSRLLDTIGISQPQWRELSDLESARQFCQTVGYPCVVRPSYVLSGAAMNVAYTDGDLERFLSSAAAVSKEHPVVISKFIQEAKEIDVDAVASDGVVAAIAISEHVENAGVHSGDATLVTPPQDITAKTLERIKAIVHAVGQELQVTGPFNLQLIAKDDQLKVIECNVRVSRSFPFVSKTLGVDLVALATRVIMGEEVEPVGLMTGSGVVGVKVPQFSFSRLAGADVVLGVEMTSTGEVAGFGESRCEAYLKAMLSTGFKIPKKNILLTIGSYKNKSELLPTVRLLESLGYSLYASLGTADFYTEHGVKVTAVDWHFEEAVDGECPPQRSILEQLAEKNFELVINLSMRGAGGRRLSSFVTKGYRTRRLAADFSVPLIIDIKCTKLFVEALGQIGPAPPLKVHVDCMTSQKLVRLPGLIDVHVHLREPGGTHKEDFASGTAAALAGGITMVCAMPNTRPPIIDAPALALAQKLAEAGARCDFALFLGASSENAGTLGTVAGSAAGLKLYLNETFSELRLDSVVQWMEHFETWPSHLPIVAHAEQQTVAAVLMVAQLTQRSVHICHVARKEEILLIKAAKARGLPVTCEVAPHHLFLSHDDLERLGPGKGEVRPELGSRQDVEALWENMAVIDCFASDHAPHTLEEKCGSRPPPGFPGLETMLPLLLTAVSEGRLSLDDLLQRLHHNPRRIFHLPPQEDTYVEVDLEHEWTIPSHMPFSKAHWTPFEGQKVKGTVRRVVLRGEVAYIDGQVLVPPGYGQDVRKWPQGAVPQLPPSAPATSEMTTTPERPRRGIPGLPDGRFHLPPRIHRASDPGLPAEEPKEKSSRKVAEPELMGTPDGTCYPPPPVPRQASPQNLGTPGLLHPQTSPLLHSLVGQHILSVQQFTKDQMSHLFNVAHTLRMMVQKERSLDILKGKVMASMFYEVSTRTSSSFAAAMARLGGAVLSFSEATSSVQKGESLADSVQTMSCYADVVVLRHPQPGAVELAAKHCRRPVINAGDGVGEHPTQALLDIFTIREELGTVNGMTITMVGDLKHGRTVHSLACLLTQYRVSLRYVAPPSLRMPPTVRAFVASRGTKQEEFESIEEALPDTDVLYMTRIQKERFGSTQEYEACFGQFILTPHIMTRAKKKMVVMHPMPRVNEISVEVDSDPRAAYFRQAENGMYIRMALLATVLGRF
Experimental: as §1

[5] = In vitro diffusion test (Franz cells); type: in vitro ADME; conditions: PALA 50 mg/g, 37° C., PBS pH 7.4
Experimental: All the formulations were prepared by accurately weighing 50 mg PALA in a 4 mL glass vial. The vial was stirred at RT until a clear solution was obtained. Exception for poloxamers P407 20% w/w and P188 at 40% w/w where the PALA solubilisation was performed by stirring the vial in an ice bath (to prevent gelling which occurred at RT).
In vitro diffusion test (Franz cells, Copley) was performed to mimicking in-vivo conditions of PALA (CMI-34-1) transfer from the formulation through the skin. The test was performed in sink conditions. 100 μL of PALA (CMI-34-1)-loaded hydrogels or bi-gel (containing 5 mg of API) were added to the donor chamber of the Franz cells. 7 mL of PBS pH 7.4 was added to the receptor chamber. The chambers were separated by a Strat-M Membrane (Transdermal Diffusion Test Model, Merck) of 25 mm diameter. The Franz cells were incubated at 37° C. in an appropriate heating block and under stirring at 450 rpm. At selected time points (15, 30, 60, 120, 180, and 1440 minutes), 100 μL of samples was withdrawn from the receptor chamber and analysed by HPLC for drug release. The same volume was replaced with fresh PBS buffer pre-heated at 37° C.

[6] = test system: chemical carcinogen-induced skin cancer; experiment: Chemical carcinogen (DMBA/TPA)-induced skin cancer model, C57BL/6; type: in vivo, C57BL/6 female mice; conditions: 2% (w/v) PALA/Aquaphor, topical, 4 weeks
Excerpt: Means±SEM, n=5-6/group. Significance determined by 2-way ANOVA

[7] = test system: chemical carcinogen-induced skin cancer; conditions: 2% (w/v) PALA in 50% acetone/10% glycerol, topical, 4 weeks
Experimental: SKH1-Elite female mice were treated topically with DMBA for 2 weeks and then treated topically with TPA thrice a week for 8 weeks to induce skin cancer. Mice were then randomized into treatment groups and treated topically with vehicle (50% acetone/10% glycerol) or 2% (w/v) PALA for 4 weeks. A. Quantitation of mean change in tumor burden per mouse during the treatment period as a percentage of the tumor number on week 9. B. Weight change during the treatment period presented as percentage of baseline weight. C. Levels of the liver and systemic inflammation marker serum amyloid A (SAA) at endpoint. D. Measurements of colon length at endpoint as a gross measure of intestinal pathology. Means±SEM, n=8-9/group. Significance determined by 2-way ANOVA with Sidak's multiple comparisons test or unpaired […] t-test. All p values <0.05 are shown on the graphs.

[8] = molecular target: aspartate transcarbamylase (Escherichia coli, UniProt P0A786); conditions: transition-state analog inhibitor; cited from earlier work
Sequence of aspartate transcarbamylase (Escherichia coli, UniProt P0A786) (P0A786 2-311): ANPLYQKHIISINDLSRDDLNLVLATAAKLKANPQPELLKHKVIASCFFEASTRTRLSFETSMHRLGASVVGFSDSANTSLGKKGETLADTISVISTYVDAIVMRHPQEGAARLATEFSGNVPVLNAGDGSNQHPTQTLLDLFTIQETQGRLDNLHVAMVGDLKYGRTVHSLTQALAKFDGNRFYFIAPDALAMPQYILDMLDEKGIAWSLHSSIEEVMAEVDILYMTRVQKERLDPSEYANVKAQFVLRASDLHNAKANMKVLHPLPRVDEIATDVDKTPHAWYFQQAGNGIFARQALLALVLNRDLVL

[9] = test system: UVB-induced NMSC (AK lesions and SCC tumors); experiment: UVB-induced NMSC mouse model: tumor number, area, growth phenotype and grade; conditions: for total tumors at endpoint: vehicle 12.5±2.4
[10] = 2% (w/w) PALA (AP0536/29/02), daily, 4 weeks
[11] = individual tumors, PALA n = 48, vehicle 7.3%

O=C(O)CC(NC(=O)CP(=O)(O)O)C(=O)O [PALA, N-phosphonacetyl-L-aspartate]
shape of dose-response curve (bactericidal activity, HBD2, HBD3) [1]: U-shaped dose-response curve
SAA levels on day 7 [2]: no changes
colon length / gross intestinal pathology on day 7 [2]: no changes
skin histology on day 7 [2]: no changes
skin irritation apparent (day) [2]: no skin irritation
spleen weight on day 7 [2]: no changes
CD8+ cytotoxic T cells in tumors ([3]; PALA compared to vehicle-treated controls): elevated numbers
F4/80+ macrophages in tumors ([3]; PALA relative to vehicle-treated controls): increased numbers
LL-37+ cells in tumor samples ([3]; PALA vs vehicle): significantly increased
numbers of MPO+ cells (neutrophils) in tumors ([3]; PALA vs vehicle): the same
overall number of CD3+ T cells within tumor tissue ([3]; PALA vs vehicle): the same
total area of DefB14 staining within tumors ([3]; PALA vs vehicle): not different
phospho-histone H3+ cells ([3]; excised tumors, 2% PALA, vehicle 3.1%, p=0.0067): 4.9%
Ki67+ cells per tumor ([3]; excised tumors, 2% PALA, vehicle 10.4%, p=0.005): 24.6%
cyclin D1+ cells per tumor ([3]; excised tumors, 2% PALA, vehicle 48.9%, p=0.0329): 39.4%
cyclin B1+ or cyclin A2+ cell populations ([3]; excised tumors, PALA vs vehicle): No differences
reduction of aspartate transcarbamylase enzyme activity (carbamyl aspartate formation) [4]: ~ 25%
PALA permeated / released after 24 hours [5]: ~ 0.3%
change in tumor burden [6]: effective in reducing tumor burden
change in tumor burden [7]: trends of efficacy in reducing tumor burden
potency as inhibitor of aspartate transcarbamylase [8]: nanomolar potency
total tumors at endpoint ([9]; 1% PALA in 50% acetone/10% glycerol, daily topical, 10 weeks): 11.7±3.8
average tumor burden, % of original size at endpoint ([9]; 1% PALA, daily topical, 10 weeks, vehicle 286.4%±62.6): 275.0%±84.7
shape of dose-response, average number of tumors per mouse at end of treatment ([9]; 1%, 2%, 5% PALA in Aquaphor 10 weeks, 4% (w/w) PALA 4 weeks): U-shaped dose-response curves
growth profile of individual tumors [9, 10]: lower percentage of continually growing tumors
mean tumor surface area per tumor (average tumor size) [9, 10]: significantly smaller average tumor size than either vehicle or 5% IMQ treated mice
endpoint tumor grade ([9]; 2% (w/w) PALA (AP0536/29/02), daily, 4 weeks, vs vehicle or 5% IMQ): fewer squamous cell carcinoma (SCC) and SCC in situ tumors
total tumors at endpoint ([9]; 2% PALA in 50% acetone/10% glycerol, daily topical, 10 weeks): 3.83±0.6
tumor levels of interleukin-1β ([9]; 2% PALA or 5% IMQ, daily, 4 weeks): elevated
mean tumor cross-sectional area, endpoint value ([9]; 2% PALA, daily topical, 10 weeks, vehicle 4.4, p=0.003): 2.4 mm^2
mean surface tumor area, endpoint value ([9]; 2% PALA, daily topical, 10 weeks, vehicle 197.1, p<0.0001): 30.3 mm^2
average tumor burden, % of original size at endpoint ([9]; 2% PALA, daily topical, 10 weeks, vehicle 286.4%±62.6, 252.3%±34.3): 99.2%±20.5
tumor levels of interferon-al ([9]; 2% PALA, daily, 4 weeks, compared with 5% IMQ): elevated only in 2% PALA treated mice
total tumors at endpoint ([9]; 5% PALA in 50% acetone/10% glycerol, daily topical, 10 weeks): 6.20±1.8
average tumor burden, % of original size at endpoint ([9]; 5% PALA, daily topical, 10 weeks, vehicle 286.4%±62.6): 91.6%±13.4
concentrations demonstrating anti-tumor activity ([9]; 10 weeks of daily topical treatment): ≥ 2%
tumors shrinking after an initial period of growth or continually reducing in size ([9]; PALA treated tumors, 10 weeks): 97.9%
proportion of AK/SCC in situ and benign lesions ([9]; PALA-treated mice, vehicle 31%, p<0.001): 62%
prevalence of well differentiated SCC and poorly differentiated SCC ([9]; PALA-treated mice, vehicle 69%, p<0.0001): 38%
Total Tumor Number: Poorly Differentiated SCC ([9]; excised tumors, 2% PALA daily 10 weeks, vehicle 25): 6
Total Tumor Number: Benign/ Hyperplastic ([9]; excised tumors, vehicle 0): 8
Total Tumor Number: AK/SCC in situ ([9]; excised tumors, vehicle 28): 23
Total Tumor Number: Well Differentiated SCC ([9]; excised tumors, vehicle 37): 12
Tumor Growth Outcome: Same, % [9, 11]: 0 (0%)
Tumor Growth Outcome: Smaller, % [9, 11]: 4.1%
Tumor Growth Phenotype: No Change, % [9, 11]: 0 (0%)
Tumor Growth Phenotype: Continual Shrinkage, % ([9]; individual tumors, PALA n = 48, vehicle 17.0%): 29.1%
Tumor Growth Outcome: Resolved, % ([9]; individual tumors, PALA n = 48, vehicle 26.8%): 83.3%
Tumor Growth Phenotype: Grow then Shrink, % ([9]; individual tumors, PALA n = 48, vehicle 29.2%): 68.7%
Tumor Growth Phenotype: Continual Growth, % ([9]; individual tumors, PALA n = 48, vehicle 46.3%): 2.0%
Tumor Growth Outcome: Larger, % ([9]; individual tumors, PALA n = 48, vehicle 58.5%): 12.5%
tumor burden and total tumor area ([9]; reformulated 2% (w/v) PALA (AP0536/29/02), daily, 6 weeks): effective in reducing tumor burden and total tumor area
Tumor Prevalence: Benign/ Hyperplastic ([9]; vehicle 0%): 13%
Tumor Area: Benign/ Hyperplastic, mean (SEM) ([9]; vehicle 0 (0)): 1.4 (0.3)
Tumors / Mouse: Benign/ Hyperplastic, mean (SEM) ([9]; vehicle 0 (0)): 0.5 (0.6)
Tumor Cross Sectional Area: AK/SCC in situ, mean (SEM) ([9]; vehicle 1.5 (0.7)): 1.1 (1.0) mm^2
Tumors / Mouse: Poorly Differentiated SCC, mean (SEM) ([9]; vehicle 2.0 (1.6)): 0.5 (0.9)
Tumors / Mouse: AK/SCC in situ, mean (SEM) ([9]; vehicle 2.3 (2.1)): 1.9 (1.2)
Tumors / Mouse: Well Differentiated SCC, mean (SEM) ([9]; vehicle 3.0 (1.8)): 1.0 (1.1)
Tumor Area: AK/SCC in situ, mean (SEM) ([9]; vehicle 3.4 (6.6)): 2.3 (2.0)
Tumor Cross Sectional Area: Well Differentiated SCC, mean (SEM) ([9]; vehicle 3.7 (2.0)): 3.1 (2.2) mm^2
Tumor Cross Sectional Area: Poorly Differentiated SCC, mean (SEM) ([9]; vehicle 9.2 (5.8)): 9.8 (6.4) mm^2
Tumor Area: Well Differentiated SCC, mean (SEM) ([9]; vehicle 10.7 (18.0)): 7.5 (4.5)
Tumor Prevalence: Poorly Differentiated SCC ([9]; vehicle 28%): 13%
Tumor Prevalence: AK/SCC in situ ([9]; vehicle 31%): 49%
Tumor Prevalence: Well Differentiated SCC ([9]; vehicle 41%): 25%
Tumor Area: Poorly Differentiated SCC, mean (SEM) ([9]; vehicle 59.5 (77.3)): 62.6 (70.0)
Tumor Cross Sectional Area: Benign/ Hyperplastic, mean (SEM) ([9]; vehicle n/a): 1.7 (2.0) mm^2
